Source: ChEMBL document CHEMBL5465560, “Selectivity Literature for EUbOPEN Chemogenomic Library” (2024)

Key:
[1] = target: Acetylcholine receptor subunit alpha (Homo sapiens, UniProt P02708); assay: Selectivity interaction (Panel of kinases, GPCRs, ion channels and transporters (enzymatic assay)) EUB0000266bCl CHRNA1
[2] = target: T1, Bone morphogenetic protein receptor type-2 (Homo sapiens) (UniProt Q13873); assay: Selectivity interaction (LanthaScreen Eu Kinase Binding Assay) EUB0001632a BMPR2; settings: at 10 µM
T1 sequence (whole entry): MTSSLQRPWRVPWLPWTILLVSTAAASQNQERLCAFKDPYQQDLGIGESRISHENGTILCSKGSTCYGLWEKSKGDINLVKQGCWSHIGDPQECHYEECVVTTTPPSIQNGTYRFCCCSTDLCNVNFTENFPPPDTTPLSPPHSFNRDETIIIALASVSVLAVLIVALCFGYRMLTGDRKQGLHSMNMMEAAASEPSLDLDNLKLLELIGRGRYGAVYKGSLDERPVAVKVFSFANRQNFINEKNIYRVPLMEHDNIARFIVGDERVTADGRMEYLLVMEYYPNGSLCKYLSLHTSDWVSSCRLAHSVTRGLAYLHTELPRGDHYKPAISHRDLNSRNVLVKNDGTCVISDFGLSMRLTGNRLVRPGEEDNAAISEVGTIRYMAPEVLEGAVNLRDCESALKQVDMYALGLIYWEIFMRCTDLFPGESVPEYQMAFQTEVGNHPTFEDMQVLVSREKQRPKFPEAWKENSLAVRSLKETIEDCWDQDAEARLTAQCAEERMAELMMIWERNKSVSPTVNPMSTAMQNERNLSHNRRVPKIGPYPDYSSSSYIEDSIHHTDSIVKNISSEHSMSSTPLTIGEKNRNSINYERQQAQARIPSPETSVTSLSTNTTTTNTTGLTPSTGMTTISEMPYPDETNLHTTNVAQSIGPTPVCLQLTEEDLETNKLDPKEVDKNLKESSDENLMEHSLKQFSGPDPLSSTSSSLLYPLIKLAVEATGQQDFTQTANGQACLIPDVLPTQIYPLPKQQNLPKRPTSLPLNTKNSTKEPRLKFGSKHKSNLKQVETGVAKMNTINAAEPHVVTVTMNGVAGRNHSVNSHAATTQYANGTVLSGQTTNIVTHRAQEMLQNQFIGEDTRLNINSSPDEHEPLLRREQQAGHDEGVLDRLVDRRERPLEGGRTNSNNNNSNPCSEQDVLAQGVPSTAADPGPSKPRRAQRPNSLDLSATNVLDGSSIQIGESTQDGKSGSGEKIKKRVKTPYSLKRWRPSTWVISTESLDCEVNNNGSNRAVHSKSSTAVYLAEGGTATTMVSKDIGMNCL

[3] = target: Insulin receptor (Homo sapiens, UniProt P06213); assay: Selectivity interaction (Kinase panel (Z-LYTE Assay)) EUB0001632a INSR; settings: at 10 µM
[4] = target: Calcium/calmodulin-dependent protein kinase kinase 2 (Homo sapiens) (UniProt Q96RR4); assay: Selectivity interaction (ActivX KiNativ screen (kinase selectivity in THP-1 cell lysates)) EUB0000639a CAMKK2; format: subcellular; settings: lysate, at 0.01 µM
[5] = target: T2, Tyrosine-protein kinase ZAP-70 (Homo sapiens) (UniProt P43403); assay: Selectivity interaction (SelectScreen profiling (Invitrogen)) EUB0000607a ZAP70; settings: at 2 µM
T2 sequence (whole entry): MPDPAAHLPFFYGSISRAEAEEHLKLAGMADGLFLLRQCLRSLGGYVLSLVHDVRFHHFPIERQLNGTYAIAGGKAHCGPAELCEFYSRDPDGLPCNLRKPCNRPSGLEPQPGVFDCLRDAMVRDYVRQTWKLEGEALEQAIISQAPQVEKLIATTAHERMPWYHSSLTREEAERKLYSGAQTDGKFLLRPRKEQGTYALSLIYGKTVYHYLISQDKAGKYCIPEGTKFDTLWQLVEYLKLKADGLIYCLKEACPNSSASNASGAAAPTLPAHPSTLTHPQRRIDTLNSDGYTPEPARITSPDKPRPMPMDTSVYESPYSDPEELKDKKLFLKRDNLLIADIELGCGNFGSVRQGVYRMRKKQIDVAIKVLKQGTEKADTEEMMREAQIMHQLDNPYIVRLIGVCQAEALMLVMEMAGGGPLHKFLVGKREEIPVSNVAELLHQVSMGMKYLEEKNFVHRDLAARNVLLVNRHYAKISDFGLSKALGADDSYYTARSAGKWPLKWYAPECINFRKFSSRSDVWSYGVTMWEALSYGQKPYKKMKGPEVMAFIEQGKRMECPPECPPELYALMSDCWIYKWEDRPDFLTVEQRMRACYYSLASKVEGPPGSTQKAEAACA

[6] = target: T3, Serine/threonine-protein kinase Chk1 (Homo sapiens) (UniProt O14757); assay: Selectivity interaction (KinomeScan (DiscoverX)) EUB0000045b CHEK1
T3 sequence (whole entry): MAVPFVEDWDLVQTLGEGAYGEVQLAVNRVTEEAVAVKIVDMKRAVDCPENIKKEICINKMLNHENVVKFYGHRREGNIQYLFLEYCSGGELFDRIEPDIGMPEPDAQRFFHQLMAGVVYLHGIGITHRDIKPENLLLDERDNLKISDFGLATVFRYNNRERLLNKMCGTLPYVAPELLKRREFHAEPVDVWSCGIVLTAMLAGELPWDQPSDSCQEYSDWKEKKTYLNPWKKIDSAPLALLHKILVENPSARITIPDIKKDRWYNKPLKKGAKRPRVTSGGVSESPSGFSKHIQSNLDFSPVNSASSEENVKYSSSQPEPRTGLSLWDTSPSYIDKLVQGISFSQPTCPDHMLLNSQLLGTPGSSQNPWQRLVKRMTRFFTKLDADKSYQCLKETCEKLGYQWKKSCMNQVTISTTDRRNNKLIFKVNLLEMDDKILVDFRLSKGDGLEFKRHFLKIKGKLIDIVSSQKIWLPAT

Insulin receptor, sequence (P06213 28-758 limits assumed): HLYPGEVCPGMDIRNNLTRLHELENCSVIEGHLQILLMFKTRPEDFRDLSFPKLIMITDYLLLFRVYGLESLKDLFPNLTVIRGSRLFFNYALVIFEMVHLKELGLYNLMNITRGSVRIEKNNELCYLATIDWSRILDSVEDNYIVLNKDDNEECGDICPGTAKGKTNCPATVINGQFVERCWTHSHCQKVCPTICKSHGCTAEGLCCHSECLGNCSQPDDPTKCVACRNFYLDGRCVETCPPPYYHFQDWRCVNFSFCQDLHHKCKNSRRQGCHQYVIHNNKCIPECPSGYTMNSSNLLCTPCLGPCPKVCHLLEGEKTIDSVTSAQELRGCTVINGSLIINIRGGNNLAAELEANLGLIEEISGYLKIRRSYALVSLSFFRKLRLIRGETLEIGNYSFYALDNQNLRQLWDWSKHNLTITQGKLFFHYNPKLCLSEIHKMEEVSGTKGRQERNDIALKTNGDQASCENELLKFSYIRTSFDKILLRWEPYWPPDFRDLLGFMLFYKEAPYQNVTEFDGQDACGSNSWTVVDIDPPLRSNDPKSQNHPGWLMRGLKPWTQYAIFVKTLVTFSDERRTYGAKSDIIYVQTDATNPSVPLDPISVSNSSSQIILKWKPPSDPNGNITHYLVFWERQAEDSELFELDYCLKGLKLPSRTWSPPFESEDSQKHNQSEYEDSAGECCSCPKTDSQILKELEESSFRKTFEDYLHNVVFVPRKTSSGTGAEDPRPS
Insulin receptor, sequence (P06213 763-1382 limits assumed): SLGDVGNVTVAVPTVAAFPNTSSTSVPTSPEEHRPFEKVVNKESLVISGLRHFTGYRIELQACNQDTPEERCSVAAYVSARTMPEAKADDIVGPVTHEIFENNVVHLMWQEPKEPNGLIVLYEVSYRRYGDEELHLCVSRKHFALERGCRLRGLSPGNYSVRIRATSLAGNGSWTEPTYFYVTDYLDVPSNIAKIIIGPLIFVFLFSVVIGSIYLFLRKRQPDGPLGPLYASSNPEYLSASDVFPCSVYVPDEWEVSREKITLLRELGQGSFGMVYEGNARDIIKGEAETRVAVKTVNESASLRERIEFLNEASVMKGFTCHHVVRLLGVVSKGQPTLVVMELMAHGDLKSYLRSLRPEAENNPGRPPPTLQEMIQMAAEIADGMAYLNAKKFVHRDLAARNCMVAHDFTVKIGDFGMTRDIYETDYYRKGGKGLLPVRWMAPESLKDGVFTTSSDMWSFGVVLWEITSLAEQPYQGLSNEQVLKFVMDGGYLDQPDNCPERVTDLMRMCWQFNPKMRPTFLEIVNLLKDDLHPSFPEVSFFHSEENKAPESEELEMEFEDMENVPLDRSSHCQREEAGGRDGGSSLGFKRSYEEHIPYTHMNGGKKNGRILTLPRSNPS
Acetylcholine receptor subunit alpha, sequence (P02708 whole entry): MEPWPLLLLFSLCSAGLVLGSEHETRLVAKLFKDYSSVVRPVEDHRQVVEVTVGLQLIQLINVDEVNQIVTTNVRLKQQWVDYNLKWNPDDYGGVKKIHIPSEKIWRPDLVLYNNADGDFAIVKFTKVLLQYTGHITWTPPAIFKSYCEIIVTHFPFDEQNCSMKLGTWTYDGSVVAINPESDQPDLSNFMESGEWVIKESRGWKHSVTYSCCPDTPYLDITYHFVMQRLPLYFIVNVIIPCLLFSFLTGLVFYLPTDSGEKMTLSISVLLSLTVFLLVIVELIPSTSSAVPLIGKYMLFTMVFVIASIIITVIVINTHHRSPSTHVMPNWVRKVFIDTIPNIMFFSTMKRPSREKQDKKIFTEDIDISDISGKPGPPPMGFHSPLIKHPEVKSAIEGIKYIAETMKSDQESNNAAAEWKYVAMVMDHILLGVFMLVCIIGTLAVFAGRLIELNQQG
Calcium/calmodulin-dependent protein kinase kinase 2 (Homo sapiens), sequence (Q96RR4 2-588 limits assumed): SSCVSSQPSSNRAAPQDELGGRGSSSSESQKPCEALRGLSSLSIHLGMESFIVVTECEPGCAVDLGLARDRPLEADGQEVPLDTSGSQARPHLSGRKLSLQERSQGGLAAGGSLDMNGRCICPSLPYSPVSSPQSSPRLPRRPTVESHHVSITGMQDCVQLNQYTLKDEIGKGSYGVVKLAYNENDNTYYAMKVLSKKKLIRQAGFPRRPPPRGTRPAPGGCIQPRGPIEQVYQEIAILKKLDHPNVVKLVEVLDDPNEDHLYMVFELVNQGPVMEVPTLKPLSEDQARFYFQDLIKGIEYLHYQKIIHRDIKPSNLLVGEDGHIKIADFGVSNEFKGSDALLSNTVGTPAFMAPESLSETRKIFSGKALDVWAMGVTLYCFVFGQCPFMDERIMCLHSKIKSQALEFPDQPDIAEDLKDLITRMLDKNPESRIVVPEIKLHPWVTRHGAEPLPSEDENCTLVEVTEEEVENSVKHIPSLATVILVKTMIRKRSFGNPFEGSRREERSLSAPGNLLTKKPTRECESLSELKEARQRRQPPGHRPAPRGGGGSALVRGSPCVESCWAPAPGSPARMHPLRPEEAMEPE

In the case of CCn1c(-c2nc3cc(C(=O)N4CCCC(N)C4)ccc3n2C)cc2ccccc21 (configuration not stated), the pXC50 [1] is reported as < 4.3 M.

Cn1cc(-n2cnc3c(NCc4nc5cc(Cl)c(Cl)cc5[nH]4)nc(N4CCOCC4)nc32)cn1 gave a % of inhibition [2] of -6.55% and a % of control [3] of -1.61%.

CC[C@@H]1[C@H](F)C(=O)N[C@@H]1COc1nccc2cc(C(N)=O)c(OC)cc12 [ZIMLOVISERTIB] gave a % of inhibition [4] of -0.8%.

For CNC(=O)Nc1ccc(-c2nc(N3CC4CCC(C3)O4)c3cnn(C4CCC5(CC4)OCCO5)c3n2)cc1, the % of inhibition [5] was 7%.

Molecule C=CC(=O)Nc1cc(-n2c(=O)ccc3cnc4ccc(-c5ccc(NS(C)(=O)=O)cc5)cc4c32)ccc1C has a % of control ([6]; at 1 µM) of 100% and a % of control ([6]; at 10 µM) of 79%.
